In brackets after ≈: the same amount, converted by molar mass. Where two headings read alike, the source gives them in different places.
Key:
[1] = Acute toxicity assay in shrimp larvae; format: in vivo, Litopenaeus vannamei; conditions: Litopenaeus vannamei (shrimp) larvae, in vivo, other: immersion of larvae in test solutions, 28 °C, 95% CI in brackets; for LC50 at 24 h: 24 h exposure, read-out: LC50 (mg/L; 95% CI) 24 h; for LC50 at 48 h: 48 h exposure, read-out: LC50 (mg/L; 95% CI) 48 h; for LC50 at 72 h: 72 h exposure, read-out: LC50 (mg/L; 95% CI) 72 h
Method: (§1) Shrimp (L. vannamei) larvae (total length: 0.5 ± 0.04 cm, body weight: 4.2 ± 0.4 mg, mean ± SD) were provided by Zhejiang Mariculture Research Institute Qingjiang Station (Wenzhou, China). The larvae were maintained in a culture pond at 28 °C, fed four times a day with commercial feed pellets, and collected randomly for PCR testing to verify the WSSV-free status prior to the trial.
(§2) Acute toxicity of the coumarin derivatives was investigated by exposing larvae to a range of compound concentrations, from 0.1 mg/L to 100 mg/L of coumarin derivatives, where the dose setting was based on the data from preliminary tests in our laboratory. A DMSO-control (2%, v/v, the highest percentage of DMSO in treatments) served as the control. During the experiment, every 20 larvae were moved into six-well plates filled with 6 mL/per well freshly prepared test solutions for a 72-h incubation at 28 °C with a natural photoperiod. […] To avoid deterioration of water quality, dead shrimps were immediately removed at the point of observation. Three replicate experiments were performed.
(§3) Compound response curves were represented by a logistic sigmoidal function with a maximal effect level (Amax) and Hill coefficient representing the sigmoidal transition (Origin 8.1; http://www.originlab.com, accessed on 25 March 2021). Statistical analyses were performed using SPSS (version 18.0) statistical software (SPSS Inc., Chicago, IL, USA). The LC50 and EC50 values with 95% CIs were calculated using probit analysis. Virus titers were log10-transformed prior to statistical analyses. Unpaired Student’s t-tests were used to compare coumarin-treated samples and negative-control DMSO samples for determining significance and data are presented as mean values ± SD.

[2] = test system: white spot syndrome virus (WSSV); assay: Anti-WSSV activity in shrimp larvae, co-incubation, copy number of viral genome by RT-qPCR; format: in vivo, Litopenaeus vannamei
[3] = Solubility / precipitation in aquacultural water; format: physicochemical; conditions: for lowest precipitation concentration / lowest precipitation concentration (bracketed value in LC50 48 h column) / lowest precipitation concentration (bracketed value in LC50 72 h column): test range 0.4~100 mg/L, aquacultural water, LC50 NONE
Method: Prior to evaluation of the anti-WSSV activity of coumarins, the safety doses for larvae needed to be determined. […] In contrast, the electron-withdrawing group was more toxic than the electron-donating group, with the LC50 of A5‒A8 being <5 mg/L at 72 h. […] Based on preliminary analysis of the structure-activity relationship (SAR) of similar spatial structures with different substituents of electron-donating and electron-withdrawing groups to coumarins A1, B1, and C1, we considered that […] of compounds; this provides a basis for further research.
All conventional reagents and solvents are purchased directly from commercial companies and no further purification is required. Organic solvents were purchased from Sinopharm chemical reagent Co., Ltd. and purified by distillation and moisture was excluded from the glass apparatus using CaCl2 drying tubes. Throughout this study, silica gel H (200–300 mesh; Qingdao Marine Chemical Factory, Qingdao, China) was used for the column chromatography. For thin layer chromatographic (TLC) plates, Silica gel (GF254) (Qingdao Marine Chemical Factory, Qingdao, China) were used for thin layer chromatographic (TLC) analysis, and all of the spots and bands were detected by UV irradiation (254, 365 nm). The intermediates and products were characterized by electrospray ionization mass spectrometry (TripleTOF5600þ; AB SCIEX Pte. Ltd., Boston, MA, USA), ^1H NMR and ^13C NMR (Bruker AM500 spectrometer; Bruker Corporation, Berne, Switzerland). The derivatives were dissolved in 100% dimethyl sulfoxide (DMSO; Beyotime Biotechnology, Haimen, China), stored at 4 °C prior to antiviral evaluation, and used within 6 months. For solubility, the stock solutions, at a concentration of 50 mg/mL, were sonicated for approximately 10 min to ensure that the derivatives were fully dissolved and mixed.

[4] = test system: white spot syndrome virus (WSSV); conditions: cited from earlier work
[5] = test system: Shrimp (L. vannamei) larvae; assay: Acute toxicity assay in shrimp larvae; format: in vivo, Litopenaeus vannamei; conditions: after 72 h of exposure
Method: as §1, §2, §3

[6] = Whispovirus xiabaidian, 72 h, read-out: EC50 (mg/L; 95% CI), median effective concentration, WSSV-infected larvae, copy number of viral genome, 72 h; 95% CI in brackets
[7] = Whispovirus xiabaidian, 72 h, WSSV-infected larvae, copy number of viral genome, 72 h; 95% CI in brackets; read-out: EC50 (mg/L; 95% CI), median effective concentration
[8] = six-point dose-response, viral genome copy number in larvae
[9] = WSSV-infected larvae, copy number of viral genome, 72 h; 95% CI in brackets

Structure (SMILES) | LC50 at 24 h [1] [mg/L] | LC50 at 48 h [1] [mg/L] | LC50 at 72 h [1] [mg/L] | further results
N#CC1=C(N)Oc2c(c(=O)oc3ccccc23)C1c1ccccc1 (centres unmarked) [C1] | 18.4 (≈ 58.2 µM) | 16.6 (≈ 52.6 µM) | 9.18 (≈ 29 µM) | EC50 [2, 6]: 2.9 mg/L
O=c1oc2ccccc2c2c1C(c1ccc([N+](=O)[O-])cc1)NC(=S)N2 (centres unmarked) [B8, 4-(4-nitrophenyl)-2-thioxo-1,2,3,4-tetrahydro-5H-chromeno[4,3-d]pyrimidin-5-one] | 13.6 (≈ 38.3 µM) | 7.48 (≈ 21.2 µM) | 3.06 (≈ 8.65 µM) | 
Cc1ccc(C2NC(=S)Nc3c2c(=O)oc2ccccc32)cc1 (centres unmarked) [B2, 2-thioxo-4-(p-tolyl)-1,2,3,4-tetrahydro-5H-chromeno[4,3-d]pyrimidin-5-one] | 23.9 (≈ 74 µM) | 18.6 (≈ 57.6 µM) | 14.7 (≈ 45.5 µM) | 
O=C1Nc2c(c(=O)oc3ccccc23)C(c2ccc([N+](=O)[O-])cc2)N1 (centres unmarked) [A8, 4-(4-nitrophenyl)-3,4-dihydro-2H-chromeno[4,3-d]pyrimidine-2,5(1H)-dione] | 8.76 (≈ 26 µM) | 3.43 (≈ 10.2 µM) | 1.61 (≈ 4.79 µM) | 
O=C1Nc2c(c(=O)oc3ccccc23)C(c2ccccc2)N1 (centres unmarked) [A1, 4-phenyl-3,4-dihydro-2H-chromeno[4,3-d]pyrimidine-2,5(1H)-dione] | 95.5 (≈ 327 µM) | 71.4 (≈ 244 µM) | 32.5 (≈ 111 µM) | EC50 [2, 7]: 21.5 mg/L
O=c1oc2ccccc2c2c1C(c1ccc(O)cc1)NC(=S)N2 (centres unmarked) [B4, 4-(4-hydroxyphenyl)-2-thioxo-1,2,3,4-tetrahydro-5H-chromeno[4,3-d]pyrimidin-5-one] |  |  |  | EC50 [2, 6]: 22.6 mg/L; inhibitory efficiency on WSSV replication [2, 8]: exceeded 90%; lowest precipitation concentration [3]: NONE (50) mg/L; lowest precipitation concentration (bracketed value in LC50 48 h column) [3]: NONE (50) mg/L; lowest precipitation concentration (bracketed value in LC50 72 h column) [3]: NONE (50) mg/L
COc1ccc(C2NC(=S)Nc3c2c(=O)oc2ccccc32)cc1 (centres unmarked) [B3, 4-(4-methoxyphenyl)-2-thioxo-1,2,3,4-tetrahydro-5H-chromeno[4,3-d]pyrimidin-5-one] | 66.2 (≈ 196 µM) | 64.1 (≈ 189 µM) | 41.7 (≈ 123 µM) | EC50 [2, 7]: 25.6 mg/L
Cc1ccc(C2NC(=O)Nc3c2c(=O)oc2ccccc32)cc1 (centres unmarked) [A2, 4-(p-tolyl)-3,4-dihydro-2H-chromeno[4,3-d]pyrimidine-2,5(1H)-dione] | 15 (≈ 49 µM) | 14.3 (≈ 46.6 µM) | 10 (≈ 32.7 µM) | EC50 (mg/L; 95% CI), median effective concentration [2, 9]: 05.037 (4.076~7.593) mg/L; EC50 [2, 7]: < 10 mg/L
N#CC1=C(N)Oc2c(c(=O)oc3ccccc23)C1c1ccc(C#N)cc1 (centres unmarked) [C9] |  |  |  | EC50 [2, 6]: 60.5 mg/L
C=CCN1C(=O)S/C(=C\c2ccc(-c3ccccc3)o2)C1=O [LJ025] |  |  |  | half-life in aquaculture water [4]: less than 2 days
O=C1Nc2c(c(=O)oc3ccccc23)C(c2ccc(O)cc2)N1 (centres unmarked) [A4, 4-(4-hydroxyphenyl)-3,4-dihydro-2H-chromeno[4,3-d]pyrimidine-2,5(1H)-dione] |  |  |  | EC50 [2, 6]: 21.7 mg/L; inhibitory efficiency on WSSV replication [2, 8]: exceeded 90%; lowest precipitation concentration [3]: NONE (50) mg/L; lowest precipitation concentration (bracketed value in LC50 48 h column) [3]: NONE (50) mg/L; lowest precipitation concentration (bracketed value in LC50 72 h column) [3]: NONE (50) mg/L
O=c1oc2ccccc2c2c1C(c1ccc(Cl)cc1)NC(=S)N2 (centres unmarked) [B6, 4-(4-chlorophenyl)-2-thioxo-1,2,3,4-tetrahydro-5H-chromeno[4,3-d]pyrimidin-5-one] | 8.85 (≈ 25.8 µM) | 6.63 (≈ 19.3 µM) | 4.5 (≈ 13.1 µM) | 
O=C1Nc2c(c(=O)oc3ccccc23)C(c2ccc(F)cc2)N1 (centres unmarked) [A5, 4-(4-fluorophenyl)-3,4-dihydro-2H-chromeno[4,3-d]pyrimidine-2,5(1H)-dione] | 16.6 (≈ 53.6 µM) | 11.7 (≈ 37.9 µM) | 10.1 (≈ 32.4 µM) | EC50 (mg/L; 95% CI), median effective concentration [2, 9]: 08.416 (7.137~11.317) mg/L; EC50 [2, 7]: < 10 mg/L
O=C1Nc2c(c(=O)oc3ccccc23)C(c2ccc(Cl)cc2)N1 (centres unmarked) [A6, 4-(4-chlorophenyl)-3,4-dihydro-2H-chromeno[4,3-d]pyrimidine-2,5(1H)-dione] | 2.58 (≈ 7.91 µM) | 2.48 (≈ 7.59 µM) | 2.35 (≈ 7.18 µM) | 
N#CC1=C(N)Oc2c(c(=O)oc3ccccc23)C1c1ccc(Cl)cc1 (centres unmarked) [C6] |  | 44.2 (≈ 126 µM) | 17.7 (≈ 50.4 µM) | EC50 [2, 6]: 8.54 mg/L; inhibitory efficiency on WSSV replication [2, 8]: exceeded 90%
O=c1oc2ccccc2c2c1C(c1ccccc1)NC(=S)N2 (centres unmarked) [B1, 4-phenyl-2-thioxo-1,2,3,4-tetrahydro-5H-chromeno[4,3-d]pyrimidin-5-one] | 15 (≈ 48.7 µM) | 12.8 (≈ 41.4 µM) | 10.5 (≈ 34.2 µM) | 
O=c1oc2ccccc2c2c1C(c1ccc(F)cc1)NC(=S)N2 (centres unmarked) [B5, 4-(4-fluorophenyl)-2-thioxo-1,2,3,4-tetrahydro-5H-chromeno[4,3-d]pyrimidin-5-one] | 16.6 (≈ 50.7 µM) | 8.87 (≈ 27.2 µM) | 8.4 (≈ 25.7 µM) | 
N#Cc1ccc(C2NC(=O)Nc3c2c(=O)oc2ccccc32)cc1 (centres unmarked) [A9, 4-(2,5-dioxo-1,3,4,5-tetrahydro-2H-chromeno[4,3-d]pyrimidin-4-yl)benzonitrile] | 19.8 (≈ 62.5 µM) | 18 (≈ 56.6 µM) | 7.33 (≈ 23.1 µM) | 
COc1ccc(C2C(C#N)=C(N)Oc3c2c(=O)oc2ccccc32)cc1 (centres unmarked) [C3] | 22.3 (≈ 64.5 µM) | 17.3 (≈ 50 µM) | 17.3 (≈ 50 µM) | EC50 [2, 6]: 14.8 mg/L
O=c1oc2ccccc2c2c1C(c1ccc(Br)cc1)NC(=S)N2 (centres unmarked) [B7, 4-(4-bromophenyl)-2-thioxo-1,2,3,4-tetrahydro-5H-chromeno[4,3-d]pyrimidin-5-one] | 10 (≈ 25.9 µM) | 4.81 (≈ 12.4 µM) | 4.46 (≈ 11.5 µM) | 
N#CC1=C(N)Oc2c(c(=O)oc3ccccc23)C1c1ccc(F)cc1 (centres unmarked) [C5] |  |  |  | signs of toxicity at the saturation concentration [5]: No signs of toxicity were observed; EC50 [2, 6]: 8.82 mg/L; inhibitory efficiency on WSSV replication [2, 8]: exceeded 90%; lowest precipitation concentration [3]: NONE (16) mg/L; lowest precipitation concentration (bracketed value in LC50 48 h column) [3]: NONE (16) mg/L; lowest precipitation concentration (bracketed value in LC50 72 h column) [3]: NONE (16) mg/L; solubility in aquacultural water ([3]; tested concentration 16 mg/L, 28 °C): insoluble
N#CC1=C(N)Oc2c(c(=O)oc3ccccc23)C1c1ccc(O)cc1 (centres unmarked) [C4] |  |  |  | EC50 [2, 7]: 61.2 mg/L; inhibitory efficiency on WSSV replication [2, 8]: exceeded 90%
C=CCN1C(=O)/C(=C/c2ccc(-c3ccccc3)o2)SC1=S [LJ001] |  |  |  | half-life in aquaculture water [4]: less than 2 days
COc1ccc(C2NC(=O)Nc3c2c(=O)oc2ccccc32)cc1 (centres unmarked) [A3, 4-(4-methoxyphenyl)-3,4-dihydro-2H-chromeno[4,3-d]pyrimidine-2,5(1H)-dione] | 26.9 (≈ 83.4 µM) | 24.5 (≈ 76 µM) | 21.1 (≈ 65.5 µM) | EC50 [2, 7]: 14.9 mg/L
N#Cc1ccc(C2NC(=S)Nc3c2c(=O)oc2ccccc32)cc1 (centres unmarked) [B9, 4-(5-oxo-2-thioxo-1,3,4,5-tetrahydro-2H-chromeno[4,3-d]pyrimidin-4-yl)benzonitrile] | 37.1 (≈ 111 µM) | 31.5 (≈ 94.5 µM) | 9.63 (≈ 28.9 µM) | 
O=C1Nc2c(c(=O)oc3ccccc23)C(c2ccc(Br)cc2)N1 (centres unmarked) [A7, 4-(4-bromophenyl)-3,4-dihydro-2H-chromeno[4,3-d]pyrimidine-2,5(1H)-dione] | 14.1 (≈ 38.1 µM) | 5.68 (≈ 15.3 µM) | 3.37 (≈ 9.07 µM) | 
